Data taken from US8124408B2, “Preparation of inactivated artificial antigen presenting cells and their use in cell therapies” (Janssen Pharmaceutica N.V., priority 2006, dated 2012).
Like-named read-outs stand apart in the source and are kept apart here.

Assays:
[1] = tested on: CD8^+ T cells; test: APC function of glutaraldehyde-fixed Drosophila xAPCs; type: cell-based; settings: xAPCs fixed with 0.3% glutaraldehyde
Source text: Inactivation of Drosophila cells was initially attempted with glutaraldehyde fixation in the absence of preservative.

[2] = tested on: xenogenic HLA A2.1, B7-1, B7-2, and β2m transcripts; test: RT-PCR of xenogenic nucleic acid transcription in xAPC/clone D cocultures; type: cell-based, Drosophila; settings: UVADEX 5 μg/ml and UVA 5, 15 or 30 minutes, 10 weeks coculture with clone D
Source text: RT-PCR products were then visualized by agarose gel electrophoresis.
It was possible that xenogenic nucleic acid introduced into the xAPCs might have remained active, even though the xAPCs themselves were rendered nonproliferative. […] Each culture of xAPCs was washed and cocultured for 10 weeks with an indicator Drosophila cell line designated herein as clone D, which is a cell line that has not been modified by introduction of xenogenic nucleic acid. Reverse transcriptase (RT)-PCR reactions using primers specific for xenogenic HLA A2.1, B7-1, B7-2, and β2m transcripts were then performed on extracts of the cocultures.

[3] = tested on: baculovirus; test: baculovirus/Sf9 infectivity assay; type: cell-based; settings: for Virus Titer (10^−4) / Virus Titer (10^−5): UVADEX 5 μg/ml, virus added, Sf9 cells, triplicate
Experimental: A baculovirus/Sf9 infectivity assay was used to determine if psoralen-derivative/UVA treatment was sufficient to inactivate viruses associated with virus-infected insect cells. Sf9 insect cells were infected with BacPAK6 viral stock and incubated at room temperature for one hour (BacPAK6 baculovirus rapid titer kit; BD Biosciences Clontech). […] Five days after irradiation, culture supernatants were collected. From these, new viral stocks were prepared via serial dilutions of 10^−3, 10^−4 and 10^−5, respectively. These serially diluted stock dilutions were each used to infect a second set of fresh (i.e., not previously infected) Sf9 cell cultures. This second set of cultures was overlaid with methylcellulose and grown for approximately 48 hours. Culture supernatants of this second set of cultures were discarded and a mouse monoclonal anti-gp64 (baculovirus-specific) protein antibody (Invitrogen) was added. After an inbubation period and several washes to remove unbound anti-gp64 antibody, a goat-anti-mouse polyclonal antibody conjugated to horseradish peroxidase (i.e., secondary antibody obtained from Invitrogen) was added. Unbound secondary antibody was removed with several washes, and […] was added. The number of stained foci was counted and the virus titer (pfu/ml) was calculated according to the manufacturer's instructions.

[4] = tested on: lytic virus associated with Drosophila xAPCs; test: infectivity of xAPC viral stock on Drosophila clone D indicator cells; type: cell-based
Experimental: Thus, a xAPC culture containing approximately 6×10^8 Drosophila xAPCs (clone B) was collected, suspended in 0.6 ml Schneider's media on ice, and sonicated for 30 seconds. Cell debris was pelleted by centrifugation, and the supernatant collected and layered onto a cesium chloride (CsCl) cushion, which was at a density of 1.2 (20% w/w CsCl), at a ratio of three volumes of supernatant to one volume of CsCl. The supernatant-loaded CsCl cushion was then ultracentrifuged at 25,000 rpm for four hours. Viral fractions were collected and the fraction densities measured. Three milliliter fractions at a density of 1.0 to 1.2 were pooled and dialyzed against phosphate-buffered saline (PBS), generating a viral stock, and the viral stock stored at −80° C. until use. […] Independent cultures (1×10^6 cells/culture) of the Drosophila clone D indicator cell line were incubated at 28° C. with either the treated and untreated viral aliquots. After a three-day incubation period, the indicator cell cultures were harvested and stained with propidium iodide (PI) (1 μg/1×10^6 cells) at 4° C. for 10 minutes. The live and lytic cells were analyzed by FACS, with the results depicted in FIGS. 4A-4C.
After a three-day incubation period, the percentage of viable cells was quantified in each indicator cell line culture. […]

[5] = tested on: CD8^+ T cells
Source text: Human rIL-2 (20 units/ml) and rIL-7 (30 units/ml) were each added to the culture at day 5. The CD8^+ T cells were restimulated twice on the seventh and fifteenth days of the culture period with non-CD8 adherent cells in PBMC from the same donor in the presence of the MART-1 peptides. The expanded CD8^+ T cells were then stained with MART-1 tetramers (Beckman Coulter) consisting of four MHC molecules bound to the MART-1 peptide, which was conjugated to a fluorescent protein, and analyzed by FACS.

[6] = tested on: baculovirus; test: baculovirus titer by rapid microtiter assay after UVADEX/UVA treatment of infected Sf9 cells; type: cell-based; settings: UVADEX 5 μg/ml
Experimental: The treated cells were then cultured at 28° C. for 4 days. Cultured supernatant was collected and used to infect fresh, uninfected cultures of Sf9 cells seeded in 96-well plates. Baculovirus present in these Sf9 cultures was detected by a rapid microtiter assay (Invitrogen) using a gp64-specific antibody, and baculovirus titers were calculated.
In a similar experiment, Sf9 cells were infected with the titrated doses of baculovirus as described above. […] The treated cells were then cultured at 28° C. for four days. The culture supernatant was collected and used to infect a new culture of Sf9 cells seeded in 96-well plates. Baculovirus in the Sf9 cells was detected by a rapid microtiter assay (Invitrogen). The culture plates were overlaid with methylcellulose and cultured for 48 hrs. Baculovirus was detected by immunoassay with a gp64-specific antibody (Invitrogen). The number of foci in each well was counted and the virus titer (pfu/ml) of the supernatant of the infected cells was calculated according to the manufacturer's instructions.

[7] = tested on: HLA-A2, B7-1, or ICAM-1; settings: UVADEX 5 μg/ml, UVA 0, 5 or 15 minutes
Experimental: (§1) FACS analysis was carried out by independently using antibodies specific for human HLA, human B7.1, and ICAM-1, as indicated.
The xAPC cultures were washed and stained with monoclonal antibodies specific for HLA-A2, B7-1, or ICAM-1 and analyzed by FACS.

[8] = tested on: Drosophila clone B xAPCs; test: xAPC proliferation, viable cell count by trypan blue staining; type: cell-based
Source text: (§2) Viable (i.e., live) xAPCs were counted on day 1, day 5, day 9, day 14, and day 16 post-treatment by trypan blue staining of each culture.
as §2

[9] = tested on: HLA-A2, B7-1, and ICAM-1; test: FACS of exogenous molecules in xAPC clone B/clone D cocultures; type: cell-based, Drosophila; settings: UVADEX/UVA 5 μg/ml, 10 weeks coculture with clone D
Experimental: as §1
For comparison, γ-radiation-treated xAPC clone B/clone D cocultures and untreated xAPC clone B/clone D cocultures were analyzed by FACS as well.
The cells from each culture were washed and then and cocultured with clone D indicator cells for 10 weeks. The cocultured cells were collected and aliquoted, and each aliquot was stained with one of HLA-A2, B7-1, and ICAM-1 fluorescein isothiocyanate (FITC)-conjugated monoclonal antibodies (mAbs), respectively. The stained cocultures were then analyzed by FACS.

[10] = tested on: CD8^+ T cells; test: K^b/OVA8 tetramer staining of mouse CD8+ T cells activated with xAPCs; type: cell-based, mice
Experimental: Lanes 1 and 2, percentage of stained CD8^+ T cells isolated form and activated from wild type mice (B6), as described in FIG. 8A (performed as a positive control).
IL-2 was added on day three and day five of the xAPC/naïve CD8^+ T cell coculture. The coculture was split on day seven of the coculture period, and on day nine the cultured CD8^+ T cells were collected. An OVA8/MHC tetramer (Beckman Coulter) preparation was prepared and 10 μl was mixed with 1×10^6 CD8^+ T cells/100 μl of FACS buffer (0.5% BSA, 0.2%, NaN3 in PBS). The K^b/OVA8 tetramers consisted of four MHC molecules bound to the OVA8 peptide, which was conjugated to a fluorescent protein. The mixture was incubated at room temperature for 30 minutes and washed in PBS, and then spun down at 400×g for 5 minutes. The cell pellet was resuspended in FACS buffer (500 μl) and immediately read on a FACScan flow cytometry machine at an excitation wavelength of 486 nm-580 nm and an emission wavelength of 586 nm-590 nm.

[11] = UVA irradiation time 10 minutes

O=CCCCC=O [glutaraldehyde]
CD8^+ T cell activation, less than unfixed cells [1]: 2 fold
antigen-specific proliferation of CD8^+ T cells, less than unfixed cells [1]: 2.5- to 6 fold
generation of CD8^+ T cells capable of lysing target cells [1]: to a lesser degree than unfixed cells

COc1c2occc2cc2ccc(=O)oc12 [UVADEX, 9-methoxy-7H-furo[3,2-g]-1-benzopyran-7-one]
xenogenic HLA A2.1, B7-1, B7-2, and β2m transcripts [2]: absence of detectable levels
infectious virus in viral stock obtained in the supernatant ([3]; 5 mcg/ml 8-MOPs, UVA 320-380 nm for 5 minutes, infected Sf9 cells): does not contain infectious virus
Virus Titer (10^−4) ([3]; UVA irradiation time 5 minutes): 0
Virus Titer (10^−5) ([3]; UVA irradiation time 5 minutes): 0
Virus Titer (10^−4) [3, 11]: 0
Virus Titer (10^−5) [3, 11]: 0
infection and lysis of indicator cell culture by serial dilutions of viral stock ([4]; 5 μg/ml for 10 minutes, dilutions 10^−1 to 10^−9, three-day incubation): almost completely incapable of infecting and lysing the indicator cell culture at all but the lowest dilution tested
indicator cell infection or lysis by microscopy ([4]; viral stock treated 5 μg/ml for 10 minutes, three-day incubation): failed to result in any observable indicator cell infection or lysis
Percent p/MHC tetramers of CD8^+ T cells (% Tetr + CD8^+) ([5]; Donor 1, MART-1 tetramer): 0.95%
Percent p/MHC tetramers of CD8^+ T cells (% Tetr + CD8^+) ([5]; Donor 2, MART-1 tetramer): 11.55%
Percent p/MHC tetramers of CD8^+ T cells (% Tetr + CD8^+) ([5]; Donor 3, MART-1 tetramer): 15.07%
Percent p/MHC tetramers of CD8^+ T cells (% Tetr + CD8^+) ([5]; Donor 4, MART-1 tetramer): 43.33%
baculovirus titer of culture supernatant ([6]; ten-minute UVA): no detectible baculovirus titer
baculovirus titer of culture supernatant ([6]; twenty-minute UVA): no detectible baculovirus titer
surface expression level of the three exogenous molecules [7]: essentially the same
inactivation of Drosophila cells ([8]; 8-MOPs plus 1 Joule/cm^2 for 2 minutes): sufficient to inactivate Drosophila cells
cytotoxicity at 5 µg/mL ([8]; Drosophila melanogaster, light or radiation study, read-out: inhibition of viability of xAPC cultures): ~50%
viable xAPCs detected ([8]; two weeks after UVADEX/UVA treatment, any treated culture): almost no viable cells were detected
expression of HLA-A2, B7-1, and ICAM-1 in cocultures [9]: undetectable levels
percentage of CD8^+ T cells stained with K^b/OVA tetramer versus non-treated xAPCs ([10]; MyD88 knock-out (MyD88^−/−) mice): no increase
percentage of CD8^+ T cells stained with K^b/OVA tetramer versus non-treated xAPCs ([10]; wild type (C57BL/6 (B6)) mice): higher percentage
